Measurements published in the supplement of paper PMC11208160.

experiment: recombinant barcode read abundance after kanamycin selection (control-corrected) (log10(CPM+1)); higher = more efficient recombination; sequences stand for … in AGTGCAGAGAAAATCGGCCAGTTTTCTCTGCCTGCAGTCCGCATGCCGT…AGATTTATGCAGCGGACTGCCTTTCTCCCAAAGTGATAAACCGGACAGTATCATGGACCGGTTTTCCCGGTAATCCGTATTTGCAAGGTTGGTTTCACT; site = the 11-nt target
Method: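 Pooled E. coli target-specificity screen for the IS621 bridge recombinase. Each library plasmid pairs an 11-nt target (CT core) with a bridge RNA whose target-binding loop (9-nt LTG + 4-nt RTG) is reprogrammed; the rest of the 177-nt WT IS621 bridge RNA scaffold is fixed. The plasmid is co-electroporated with a WT donor plasmid; recombinase is induced with 0.1 mM IPTG and recombinants are selected on kanamycin. Recombinant barcodes are sequenced, converted to CPM, averaged over two biological replicates and corrected by the unselected control CPM. Molecule = full bridge RNA written as DNA: LTG = specificity nt 1-9, RTG = reverse complement of specificity nt 8-11, in the WT scaffold.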
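Further: IS621 recombinase and bridge RNA in Escherichia coli cells.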

In order of rising “recombinant barcode read abundance (log10)” value:
1. AATACTACTTGGGTTCTAACCTGTTGCCT (site ATTACTACTAG)  0
2. AATACTACTTGGGTTCTAACCTGTTGCCT (site AGTACTACTAG)  0.0104
3. AAGTTTACTTGGGTTCTAACCTGTTGCTT (site AAGTTTACTAG)  0.0137
4. AATACCTCTTGGGTTCTAACCTGTTGCCT (site ACTACCTCTAG)  0.0183
5. AAGACAGCTTGGGTTCTAACCTGTTGCCT (site AAGATAGCTAG)  0.0189
6. AAGTGTCCTTGGGTTCTAACCTGTTGCAT (site AAGTTTCCTAT)  0.0208
7. AACTTCTCTTGGGTTCTAACCTGTTGCCT (site AACTTCGCTAG)  0.0209
8. AAGGACGCTTGGGTTCTAACCTGTTGCCT (site AAGGTCGCTAG)  0.0217
9. AATACTACTTGGGTTCTAACCTGTTGCCT (site ACTACTACTAG)  0.0229
10. AAGGTTCCTTGGGTTCTAACCTGTTGCTA (site AAGGTCCCTTG)  0.0242
11. AATACCTCTTGGGTTCTAACCTGTTGCCT (site ATTACCTCTAG)  0.0243
12. AAGATCACTTGGGTTCTAACCTGTTGCGG (site TTACATGCTAG)  0.026
13. AAGGGTTCTTGGGTTCTAACCTGTTGCCA (site ACGGGTACTTG)  0.0285
14. AAGAGAGCTTGGGTTCTAACCTGTTGCCT (site AAGATAGCTAG)  0.0307
15. AAGCAATCTTGGGTTCTAACCTGTTGCCT (site AAGCAGTCTAG)  0.0406
16. AAGACAGCTTGGGTTCTAACCTGTTGCCT (site AAGAGAGCTAG)  0.0524
17. AAGTACACTTGGGTTCTAACCTGTTGCTG (site CGACTGTCTAG)  0.0537
18. AAGCGTCCTTGGGTTCTAACCTGTTGCCT (site AAGCGTTCTAG)  0.06
19. AATACCTCTTGGGTTCTAACCTGTTGCCT (site AGTACCTCTAG)  0.0751
20. AAGCAAACTTGGGTTCTAACCTGTTGCCT (site AAGCCAACTAG)  0.0799
21. AAGAGAGCTTGGGTTCTAACCTGTTGCCT (site AAGAAAGCTAG)  0.0985
22. AAGTTTCCTTGGGTTCTAACCTGTTGCGT (site ACGTTTCCTAT)  0.102
23. AAGTGCTCTTGGGTTCTAACCTGTTGCCT (site AGGTGCTCTAG)  0.124
24. AAGCAATCTTGGGTTCTAACCTGTTGCCT (site AAGCATTCTAG)  0.126
25. AAGCCACCTTGGGTTCTAACCTGTTGCCT (site CAGCCACCTAG)  0.126
26. AAGTGCTCTTGGGTTCTAACCTGTTGCCT (site ATGTGCTCTAG)  0.127
27. AAGTGCTCTTGGGTTCTAACCTGTTGCCT (site ACGTGCTCTAG)  0.129
28. AAGACCTCTTGGGTTCTAACCTGTTGCTT (site AAGTCCTCTAA)  0.134
29. AAGACCTCTTGGGTTCTAACCTGTTGCTT (site AAGCCCTCTAA)  0.139
30. AAGAGAGCTTGGGTTCTAACCTGTTGCCT (site AAGACAGCTAG)  0.154
31. AAGCAATCTTGGGTTCTAACCTGTTGCCT (site AAGCACTCTAG)  0.159
32. AAGTTTACTTGGGTTCTAACCTGTTGCTT (site AAGTTTACTAA)  0.177
33. AATACTACTTGGGTTCTAACCTGTTGCTG (site AGTACTCCTCA)  0.196
34. AAGAACTCTTGGGTTCTAACCTGTTGCCA (site GGCGTGCCTAC)  0.199
35. AAGCAAACTTGGGTTCTAACCTGTTGCCT (site AAGCTAACTAG)  0.218
36. AAGCAAACTTGGGTTCTAACCTGTTGCCT (site AAGCGAACTAG)  0.22
37. AAGAACACTTGGGTTCTAACCTGTTGCCT (site GAGAACACTAG)  0.233
38. AAGGACGCTTGGGTTCTAACCTGTTGCCT (site AAGGCCGCTAG)  0.241
39. AACTTCTCTTGGGTTCTAACCTGTTGCCT (site AACTTCCCTAG)  0.242
40. AAGACCTCTTGGGTTCTAACCTGTTGCTT (site AAGGCCTCTAA)  0.255
41. AATACTACTTGGGTTCTAACCTGTTGCTG (site AATACTACTCA)  0.256
42. AAGACTCCTTGGGTTCTAACCTGTTGCTT (site AACACTCCTAA)  0.287
43. AAGGACGCTTGGGTTCTAACCTGTTGCCT (site AAGGGCGCTAG)  0.309
44. AAGCTTGCTTGGGTTCTAACCTGTTGCCT (site CGATGGACTCA)  0.315
45. AAGCGTCCTTGGGTTCTAACCTGTTGCCT (site AAGCGTACTAG)  0.384
46. AAGCCACCTTGGGTTCTAACCTGTTGCCT (site GAGCCACCTAG)  0.392
47. AAGACAGCTTGGGTTCTAACCTGTTGCCT (site AAGAAAGCTAG)  0.403
48. AAGAACACTTGGGTTCTAACCTGTTGCCT (site CAGAACACTAG)  0.46
49. AAGCGTCCTTGGGTTCTAACCTGTTGCCT (site AAGCGTGCTAG)  0.583
50. AAGCAAACTTGGGTTCTAACCTGTTGCCT (site AAGCAAACTAG)  0.66
51. AACTTCTCTTGGGTTCTAACCTGTTGCCT (site AACTTCTCTAG)  0.917
52. AAGTTTCCTTGGGTTCTAACCTGTTGCGT (site AAGTTTCCTAC)  0.923
53. AAGCAATCTTGGGTTCTAACCTGTTGCCT (site AAGCAATCTAG)  0.927
54. AATACCTCTTGGGTTCTAACCTGTTGCCT (site AATACCTCTAG)  1.03
55. AATACTACTTGGGTTCTAACCTGTTGCCT (site AATACTACTAG)  1.04
56. AAGACTCCTTGGGTTCTAACCTGTTGCTT (site AAGACTCCTAA)  1.05
57. AAGCTTGCTTGGGTTCTAACCTGTTGCCT (site AAGCTTGCTAG)  1.1
58. AAGAACTCTTGGGTTCTAACCTGTTGCCA (site AAGAACTCTTG)  1.11
59. AAGAACACTTGGGTTCTAACCTGTTGCCT (site TAGAACACTAG)  1.19
60. AAGACAGCTTGGGTTCTAACCTGTTGCCT (site AAGACAGCTAG)  1.19
61. AAGCGTCCTTGGGTTCTAACCTGTTGCCT (site AAGCGTCCTAG)  1.24
62. AAGCCACCTTGGGTTCTAACCTGTTGCCT (site TAGCCACCTAG)  1.31
63. AAGGTTCCTTGGGTTCTAACCTGTTGCTA (site AAGGTTCCTTA)  1.73
64. AAGTGTCCTTGGGTTCTAACCTGTTGCAT (site AAGTGTCCTAT)  1.73
65. AAGACCTCTTGGGTTCTAACCTGTTGCTT (site AAGACCTCTAA)  1.76
66. AAGGGTTCTTGGGTTCTAACCTGTTGCCA (site AAGGGTTCTTG)  1.78
67. AAGAGAGCTTGGGTTCTAACCTGTTGCCT (site AAGAGAGCTAG)  1.91
68. AAGAACACTTGGGTTCTAACCTGTTGCCT (site AAGAACACTAG)  2.06
69. AAGCCACCTTGGGTTCTAACCTGTTGCCT (site AAGCCACCTAG)  2.3
70. AAGTGCTCTTGGGTTCTAACCTGTTGCCT (site AAGTGCTCTAG)  2.34
71. AAGATCACTTGGGTTCTAACCTGTTGCGG (site AAGATCACTCC)  2.36
72. AAGGACGCTTGGGTTCTAACCTGTTGCCT (site AAGGACGCTAG)  2.72
73. AAGTACACTTGGGTTCTAACCTGTTGCTG (site AAGTACACTCA)  2.75
